Source: patent US9540337B2, “Gamma-glutamyl transpeptidase inhibitors and methods of use” (The Board of Regents of the University of Oklahoma, priority 2012, dated 2017)
Like-named read-outs stand apart in the source and are kept apart here.

What was measured:
[1] = molecular target: T1, hGGT (Homo sapiens, UniProt P19440); assay: L-Glutamate Release Assay (Hydrolysis of GSH); assay type: biochemical; details: for Ki: GSH hydrolysis, read-out: GSH Kii
T1 construct: lacking the transmembrane domain; made in house; host or cells: Pichia pastoris
Method: L-Glutamate Release Assay (Hydrolysis of GSH): This assay measures the production of glutamate from the hydrolysis of GSH by GGT enzyme and has been described in detail previously. The concentration of the substrate, GSH, was varied from 5 μM to 20 μM. The concentration of the inhibitors, OU749 and its analogs, were varied from 15.6 μM to 250 μM. The reaction was initiated with the addition of 10 mU hGGT. […] All compounds were also evaluated as inhibitors of glutamate dehydrogenase, the enzyme in the second half of the L-glutamate release assay. None of the compounds in this study inhibited glutamate dehydrogenase.

[2] = molecular target: T2, Human GGT1 (hGGT) (Homo sapiens, UniProt P19440); assay: L-GpNA Transpeptidation Assay with GlyGly as acceptor; assay type: biochemical; set-up: lacking the transmembrane domain; made in house; host or cells: Pichia pastoris; details: for fold change in L-GpNA Kii (transpeptidation) relative to Compound 16: weaker than Compound 16
Method: Transpeptidation Reaction: The same assay buffer was used for both the hydrolysis reaction and the transpeptidation reaction. The transpeptidation reaction included 40 mM glycylglycine (glygly, Sigma, St. Louis, Mo.) as the acceptor. […] The concentration of L-GpNA was 3 mM for experiments in which the concentration of glygly was varied. To initiate the transpeptidation reaction, 4 mU GGT were added.
1. […] 3 and 4. […] 5 (25).
L-GpNA Transpeptidation Assay: The assay has been described previously. […] The concentration of L-GpNA was 3 mM for experiments in which the concentration of GlyGly was varied. To initiate the transpeptidation reaction, 4 mU GGT were added.

[3] = molecular target: T2, Human GGT1 (hGGT); assay: D-GpNA Hydrolysis Assay (release of pNA, 405 nm, pH 7.4); details: for Vo (maximum velocity at zero activator) / V∞ (maximum rate at infinite activator): Hydrolysis D-GpNA, Table 3; for maximal fold induction: human
Method: (§1) Enzyme Isolation: Human GGT1 (P19440), lacking the transmembrane domain, was expressed in Pichia pastoris and isolated as previously described (14). […] One unit of GGT activity was defined as the amount of enzyme that released 1 μmol of paranitroaniline/min at 37° C. at pH 7.4 in the transpeptidation reaction.
The reaction was initiated with the addition of 19 mU GGT. The reaction was incubated at 37° C. and monitored continuously at 405 nm by a Bio-Rad model 680 microplate reader with Microplate Manager 5.2 software (Bio-Rad, Hercules, Calif.).
Data Analysis: Samples in each experiment were run in triplicate. Each inhibitor was evaluated in two or more independent experiments. Double reciprocal plots were generated to assess data quality and determine the correct rate equation for data fitting. Data were fitted using the proper rate equation and the Marquardt-Levenberg algorithm supplied with the Enzfitter program (BIOSOFT, Cambridge, UK). Kinetic parameters with standard errors were estimated using a simple weighting method.
Data adhering to Michaelis-Menten Kinetics were fitted to eq. 1. Data for initial rate patterns with D-, L-GpNA varied at different fixed levels of glygly were fitted to eq. […] Data for competitive and uncompetitive inhibition were fitted to eqs. 3 and 4. Data for the dependence of Vmax and Vmax/KD-GpNA on the concentration of activator were fitted using eq. 5 (25).
In eqs 1-6, Vmax are the initial and maximum rates, respectively, Ka and Kb are Michaelis constants for substrates A and B, respectively, and Kis and Kii are slope and intercept inhibition constants. In eq. 5, a is the value of Vmax or Vmax/KD-GpNA at zero activator/inhibitor, KID is the activation or inhibition constant, and KIN is a constant that causes the parameter to go to a constant value at infinite concentrations of X, the activator/inhibitor. The product a(KID/KIN) is the value of Vmax or Vmax/KD-GpNA at infinite activator/inhibitor (25). Data for noncompetitive inhibition were fitted to eq. 6. Data for the dependence of Vmax and Vmax/KD-GpNA on the concentration of activator were fitted using […].
as §1, with “hGGT” for “Human GGT1”, “described.” for “described (14).”, “reaction with L-GpNA.” for “reaction.”
D-GpNA Hydrolysis Assay: The assay was carried out as previously described. […] The reaction was initiated with the addition of 19 mU GGT as determined by the L-GpNA transpeptidation assay. The reaction was incubated at 37° C. and monitored continuously at 405 nm.

[4] = Table 5, read-out: GlyGly with L-GpNA Kis
[5] = Table 5, read-out: L-GpNA with GlyGly Kii
[6] = GlyGly varied, 3 mM L-GpNA, Table 2, read-out: Transpeptidation GlyGly Kis
[7] = L-GpNA varied, 40 mM GlyGly, Table 2, read-out: Transpeptidation L-GpNA Kii
[8] = Table 3, read-out: Transpeptidation GlyGly Kis
[9] = Table 3, read-out: Transpeptidation L-GpNA Kii
[10] = pH 7.4, read-out: Fold Activation
[11] = read-out: activation of the Vmax for hydrolysis (V∞/Vo)

T1 sequence (P19440 381-569 limits assumed): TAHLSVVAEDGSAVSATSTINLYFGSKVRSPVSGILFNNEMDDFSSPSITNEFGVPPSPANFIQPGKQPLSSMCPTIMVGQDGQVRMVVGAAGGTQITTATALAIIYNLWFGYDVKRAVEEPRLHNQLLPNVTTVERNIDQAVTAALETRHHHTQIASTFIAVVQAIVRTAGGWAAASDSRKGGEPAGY
T1 sequence (P19440 27-380 limits assumed): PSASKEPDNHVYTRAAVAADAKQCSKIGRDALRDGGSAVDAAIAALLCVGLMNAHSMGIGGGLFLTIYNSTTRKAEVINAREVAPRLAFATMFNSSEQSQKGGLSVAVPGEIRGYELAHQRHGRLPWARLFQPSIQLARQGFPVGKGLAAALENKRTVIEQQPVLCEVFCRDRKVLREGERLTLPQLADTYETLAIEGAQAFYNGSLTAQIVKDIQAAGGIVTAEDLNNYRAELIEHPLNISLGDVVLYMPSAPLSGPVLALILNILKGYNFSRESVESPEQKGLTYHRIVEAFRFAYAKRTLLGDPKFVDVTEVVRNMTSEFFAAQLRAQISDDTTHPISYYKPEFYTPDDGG
T2 sequence (P19440 381-569 limits assumed): as the sequence (P19440 381-569 limits assumed) above
T2 sequence (P19440 27-380 limits assumed): as the sequence (P19440 27-380 limits assumed) above

Row | Ki [3] | Ki [2, 8] | Ki [2, 9] | Vo (maximum velocity at zero activator) [3] | V∞ (maximum rate at infinite activator) [3] | maximal fold induction [3, 10] | maximal fold induction [3, 11] | SMILES | other results
1 |  |  |  |  |  |  |  | COc1ccc(Cc2nnc(NS(=O)(=O)c3ccc(N)cc3)s2)cc1 [Compound 21] | Ki ([1]; Table 4): 105 ± 14 µM; fold more potent than OU749 in inhibiting GSH hydrolysis ([1]; relative to OU749): 3.6 fold; Ki ([2]; Table 4, read-out: GlyGly with L-GpNA Kis): 10 ± 1 µM; Ki ([2]; Table 4, read-out: L-GpNA with GlyGly Kii): 36 ± 1 µM; Ki ([3]; read-out: D-GpNA Kii, Table 4): 31 ± 1 µM
2 | 180 ± 5 µM |  |  |  |  |  |  | CN(C)c1ccc(Cc2nnc(NS(=O)(=O)c3ccc(N)cc3)s2)cc1 [Compound 27] | Ki ([1]; Table 5): 363 ± 35 µM; Ki [2, 4]: 24 ± 4 µM; Ki [2, 5]: 275 ± 12 µM
3 | 75.6 ± 7.2 µM |  |  |  |  |  |  | COc1ccc(Cc2nnc(NS(=O)(=O)c3ccc(Cl)cc3Cl)s2)cc1 [Compound 4] | Ki ([1]; Table 6): 950 ± 242 µM; Ki [2, 6]: 3.7 ± 1 µM; Ki [2, 7]: 15.7 ± 0.7 µM
4 | 32 ± 1 µM |  |  |  |  |  |  | Nc1ccc(S(=O)(=O)Nc2nnc(Cc3ccc(Cl)c(Cl)c3)s2)cc1 [Compound 29] | Ki ([1]; Table 5): 905 ± 53 µM; decrease of Kis as competitive inhibitor of GlyGly relative to OU749 [2]: up to 11 fold; Ki [2, 4]: 5 ± 1 µM; Ki [2, 5]: 34 ± 4 µM
5 |  |  |  |  |  |  |  | Cc1cccc(Cc2nnc(NS(=O)(=O)c3ccc(N)cc3)s2)c1 [Compound 24] | Ki ([1]; Table 5): 121 ± 5 µM; Ki [2, 4]: 30 ± 5 µM; Ki [2, 5]: 129 ± 17 µM; Ki ([3]; read-out: D-GpNA Kii, Table 5): 109 ± 4 µM
6 | 149 ± 13.6 µM |  |  |  |  |  |  | COc1ccc(Cc2nnc(NS(=O)(=O)c3ccc(NO)cc3)s2)cc1 [Compound 5] | Ki [2, 6]: 25.7 ± 1.3 µM; Ki [2, 7]: 64.4 ± 5.1 µM; fold less effective than OU749 in inhibiting hydrolysis of D-GpNA ([3]; relative to OU749): 2-5 fold
7 |  | 56.9 ± 8.3 µM | 113 ± 5.2 µM | 2.62 ± 0.79 mM/min/nM | 11.25 ± 4.27 mM/min/nM | 4.29 ± 2.2 | 3 to 6 | Cc1ccc(Cc2nnc(NS(=O)(=O)c3ccc([N+](=O)[O-])cc3)s2)cc1 [Compound 17] | 
8 |  |  |  |  |  |  |  | COc1ccc(Cc2nnc(NS(=O)(=O)c3ccccc3)s2)cc1 [Compound 1] | Ki ([1]; Table 4): 376 ± 50 µM; Ki [2, 6]: 54.1 ± 3.9 µM
9 |  | 34.3 ± 0.9 µM | 121 ± 8.8 µM | 1.15 ± 0.01 mM/min/nM | 5.08 ± 0.20 mM/min/nM | 4.42 ± 0.64 | 3 to 6 | Cc1cccc(Cc2nnc(NS(=O)(=O)c3ccc([N+](=O)[O-])cc3)s2)c1 [Compound 18] | fold change in L-GpNA Kii (transpeptidation) relative to Compound 16 [2]: 2 fold
10 |  |  |  |  |  |  |  | N[C@H](C(=O)O)[C@@H]1CC(Cl)=NO1 [acivicin, reference compound] | kon ([3]; pH 7.4, read-out: kon (second order rate constant)): 2.85 M⁻¹ s⁻¹; kon ([3]; pH 7.4, read-out: kon corrected for the presence of D-GpNA): 8 M⁻¹ s⁻¹
11 |  | 43.8 ± 7.7 µM | 119 ± 7.1 µM | 1.30 ± 0.01 mM/min/nM | 5.86 ± 0.23 mM/min/nM | 4.51 ± 0.05 | 3 to 6 | O=[N+]([O-])c1ccc(S(=O)(=O)Nc2nnc(Cc3cccc(Cl)c3)s2)cc1 [Compound 15] | fold change in L-GpNA Kii (transpeptidation) relative to Compound 16 [2]: 2 fold

Row | SMILES | Ki [3] | Ki [2, 8] | Ki [2, 9] | Vo (maximum velocity at zero activator) [3] | V∞ (maximum rate at infinite activator) [3] | maximal fold induction [3, 10] | maximal fold induction [3, 11] | other results
12 | O=[N+]([O-])c1ccc(Cc2nnc(NS(=O)(=O)c3ccc([N+](=O)[O-])cc3)s2)cc1 [Compound 14] |  | 81.2 ± 8.8 µM | 132 ± 5.5 µM | 1.27 ± 0.01 mM/min/nM | 5.08 ± 0.41 mM/min/nM | 4 ± 0.11 | 3 to 6 | 
